Drawing on ChEMBL document CHEMBL3585305, “Structure-Based Design and Optimization of Multitarget-Directed 2H-Chromen-2-one Derivatives as Potent Inhibitors of Monoamine Oxidase B and Cholinesterases” (J Med Chem, 2015), this text covers IC50 and inhibition for 28 compounds.

Assay [1] deals with T1, Amine oxidase [flavin-containing] B (Homo sapiens, UniProt P27338).
T1 sequence (P27338 whole entry): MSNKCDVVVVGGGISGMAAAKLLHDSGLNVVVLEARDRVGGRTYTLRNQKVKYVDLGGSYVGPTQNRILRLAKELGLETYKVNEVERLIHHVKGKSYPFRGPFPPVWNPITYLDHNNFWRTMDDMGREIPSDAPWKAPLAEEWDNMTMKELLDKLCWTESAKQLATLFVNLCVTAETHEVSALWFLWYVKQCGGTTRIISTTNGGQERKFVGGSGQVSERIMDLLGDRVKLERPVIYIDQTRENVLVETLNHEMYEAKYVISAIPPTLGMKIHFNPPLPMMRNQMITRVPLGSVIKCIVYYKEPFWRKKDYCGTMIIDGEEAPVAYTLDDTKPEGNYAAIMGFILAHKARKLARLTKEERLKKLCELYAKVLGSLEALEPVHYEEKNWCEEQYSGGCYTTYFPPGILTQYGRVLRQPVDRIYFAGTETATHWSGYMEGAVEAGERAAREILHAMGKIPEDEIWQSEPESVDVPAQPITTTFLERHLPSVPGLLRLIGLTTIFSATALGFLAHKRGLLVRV
Description: Inhibition of human recombinant MAO-B using kynuramine substrate by spectrophotometric assay

Assay [2] addresses T2, Amine oxidase [flavin-containing] A (Homo sapiens, UniProt P21397).
T2 sequence (P21397 whole entry): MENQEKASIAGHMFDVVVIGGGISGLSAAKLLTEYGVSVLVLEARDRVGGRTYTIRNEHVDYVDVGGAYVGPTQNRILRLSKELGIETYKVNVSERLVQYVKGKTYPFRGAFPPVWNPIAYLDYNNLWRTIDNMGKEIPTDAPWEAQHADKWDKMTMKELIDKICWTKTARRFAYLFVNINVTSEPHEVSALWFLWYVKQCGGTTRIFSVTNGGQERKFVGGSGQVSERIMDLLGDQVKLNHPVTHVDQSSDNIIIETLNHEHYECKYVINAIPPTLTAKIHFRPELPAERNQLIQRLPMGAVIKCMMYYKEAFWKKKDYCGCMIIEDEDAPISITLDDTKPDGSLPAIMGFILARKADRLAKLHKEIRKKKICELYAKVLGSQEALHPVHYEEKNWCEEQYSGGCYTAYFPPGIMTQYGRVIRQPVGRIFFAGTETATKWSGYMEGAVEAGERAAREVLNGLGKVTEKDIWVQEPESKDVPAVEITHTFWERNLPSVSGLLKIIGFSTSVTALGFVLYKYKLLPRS
The experiment in a line: Inhibition of human recombinant MAO-A using kynuramine substrate by spectrophotometric assay.

Assay [3] deals with T3, Amine oxidase [flavin-containing] A (Rattus norvegicus, UniProt P21396).
T3 sequence (P21396 whole entry): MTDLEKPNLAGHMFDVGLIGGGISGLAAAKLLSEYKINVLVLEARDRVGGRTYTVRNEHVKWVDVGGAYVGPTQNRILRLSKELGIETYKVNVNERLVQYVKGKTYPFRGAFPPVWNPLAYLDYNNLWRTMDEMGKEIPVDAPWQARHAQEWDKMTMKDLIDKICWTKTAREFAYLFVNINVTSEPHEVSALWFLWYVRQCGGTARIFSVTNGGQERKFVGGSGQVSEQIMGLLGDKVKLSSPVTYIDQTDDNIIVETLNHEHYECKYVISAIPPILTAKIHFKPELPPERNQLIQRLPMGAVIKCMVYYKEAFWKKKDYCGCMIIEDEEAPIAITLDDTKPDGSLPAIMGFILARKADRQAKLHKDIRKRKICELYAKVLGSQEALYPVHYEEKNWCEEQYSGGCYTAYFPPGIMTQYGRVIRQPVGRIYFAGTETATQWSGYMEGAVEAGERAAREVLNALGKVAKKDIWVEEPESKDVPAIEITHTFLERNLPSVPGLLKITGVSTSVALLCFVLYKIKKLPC
The experiment in a line: Inhibition of rat brain MAO-A using kynuramine substrate […] by spectrophotometric assay.

In assay [4] the target is T4, Amine oxidase [flavin-containing] B (Rattus norvegicus, UniProt P19643).
T4 sequence (P19643 whole entry): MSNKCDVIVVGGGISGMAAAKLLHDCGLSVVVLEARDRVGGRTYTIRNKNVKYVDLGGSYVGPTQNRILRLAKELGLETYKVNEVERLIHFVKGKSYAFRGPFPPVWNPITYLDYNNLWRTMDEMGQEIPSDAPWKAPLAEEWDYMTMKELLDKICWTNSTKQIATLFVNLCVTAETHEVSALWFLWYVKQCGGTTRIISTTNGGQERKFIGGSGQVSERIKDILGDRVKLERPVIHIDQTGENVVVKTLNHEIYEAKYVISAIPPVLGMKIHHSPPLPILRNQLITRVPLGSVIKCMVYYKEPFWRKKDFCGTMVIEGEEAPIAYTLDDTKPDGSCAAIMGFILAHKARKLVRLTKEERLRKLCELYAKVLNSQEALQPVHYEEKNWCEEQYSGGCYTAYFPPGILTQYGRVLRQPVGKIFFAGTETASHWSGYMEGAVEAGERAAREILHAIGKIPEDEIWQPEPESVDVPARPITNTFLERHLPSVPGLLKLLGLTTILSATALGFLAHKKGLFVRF
Put plainly: Inhibition of rat brain MAO-B using kynuramine substrate […] by spectrophotometric assay.

The target in assay [5] is Acetylcholinesterase (Homo sapiens, UniProt P22303). The experiment in a line: Inhibition of human recombinant AChE by spectrophotometric Ellman's method. (In general: Ellman's reagent forms a yellow product with free thiols.)
Chain of Acetylcholinesterase (Homo sapiens, UniProt P22303) (P22303 whole entry): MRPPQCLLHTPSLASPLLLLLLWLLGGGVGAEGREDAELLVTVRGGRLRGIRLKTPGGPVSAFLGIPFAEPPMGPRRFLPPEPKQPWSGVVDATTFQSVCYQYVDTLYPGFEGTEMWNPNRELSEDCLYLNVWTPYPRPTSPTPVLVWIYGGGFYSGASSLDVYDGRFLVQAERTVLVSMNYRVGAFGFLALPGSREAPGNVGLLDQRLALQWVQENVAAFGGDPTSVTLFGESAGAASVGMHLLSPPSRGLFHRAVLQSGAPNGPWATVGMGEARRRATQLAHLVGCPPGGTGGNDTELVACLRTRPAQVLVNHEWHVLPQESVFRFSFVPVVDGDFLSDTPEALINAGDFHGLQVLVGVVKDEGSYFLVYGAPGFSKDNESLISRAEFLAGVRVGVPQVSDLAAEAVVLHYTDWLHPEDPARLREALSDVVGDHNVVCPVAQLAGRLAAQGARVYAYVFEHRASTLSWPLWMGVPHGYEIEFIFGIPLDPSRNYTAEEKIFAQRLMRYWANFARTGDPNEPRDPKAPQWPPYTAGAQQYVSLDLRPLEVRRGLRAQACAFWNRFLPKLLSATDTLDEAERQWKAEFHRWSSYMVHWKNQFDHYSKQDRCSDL
Assay [6] addresses Acetylcholinesterase (Electrophorus electricus, UniProt O42275). The experiment in a line: Inhibition of electric eel AChE by spectrophotometric Ellman's method.
Assay [7] has as its target Cholinesterase (Equus caballus, UniProt P81908). Put plainly: Inhibition of equine serum BuChE by spectrophotometric Ellman's method.
The target of assay [8] is T3, Amine oxidase [flavin-containing] A. Put plainly: Inhibition of rat brain MAO-A using kynuramine substrate […] at 10 uM by spectrophotometric assay.
Assay [9] addresses Cholinesterase (Equus caballus) (UniProt P81908). Put plainly: Inhibition of equine serum BuChE at 10 uM by spectrophotometric Ellman's method.

Chain of Cholinesterase (Equus caballus) (P81908 whole entry): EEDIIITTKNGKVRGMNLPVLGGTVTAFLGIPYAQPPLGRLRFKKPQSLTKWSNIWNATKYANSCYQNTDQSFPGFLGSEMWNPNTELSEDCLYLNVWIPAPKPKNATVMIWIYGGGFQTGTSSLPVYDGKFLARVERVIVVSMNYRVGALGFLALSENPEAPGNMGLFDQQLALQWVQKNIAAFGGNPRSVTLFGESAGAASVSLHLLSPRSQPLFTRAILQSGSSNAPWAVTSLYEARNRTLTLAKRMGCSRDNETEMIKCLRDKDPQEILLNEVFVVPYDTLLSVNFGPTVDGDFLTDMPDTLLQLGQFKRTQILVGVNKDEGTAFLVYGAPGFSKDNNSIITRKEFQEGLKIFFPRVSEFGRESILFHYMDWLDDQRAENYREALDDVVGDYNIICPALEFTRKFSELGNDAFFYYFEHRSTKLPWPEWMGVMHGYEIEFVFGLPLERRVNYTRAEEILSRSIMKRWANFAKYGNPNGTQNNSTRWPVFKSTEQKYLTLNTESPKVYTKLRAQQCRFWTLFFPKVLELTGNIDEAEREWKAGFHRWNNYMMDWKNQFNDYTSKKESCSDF
Chain of Cholinesterase (P81908 whole entry): as above
Chain of Acetylcholinesterase (Electrophorus electricus, UniProt O42275) (O42275 whole entry): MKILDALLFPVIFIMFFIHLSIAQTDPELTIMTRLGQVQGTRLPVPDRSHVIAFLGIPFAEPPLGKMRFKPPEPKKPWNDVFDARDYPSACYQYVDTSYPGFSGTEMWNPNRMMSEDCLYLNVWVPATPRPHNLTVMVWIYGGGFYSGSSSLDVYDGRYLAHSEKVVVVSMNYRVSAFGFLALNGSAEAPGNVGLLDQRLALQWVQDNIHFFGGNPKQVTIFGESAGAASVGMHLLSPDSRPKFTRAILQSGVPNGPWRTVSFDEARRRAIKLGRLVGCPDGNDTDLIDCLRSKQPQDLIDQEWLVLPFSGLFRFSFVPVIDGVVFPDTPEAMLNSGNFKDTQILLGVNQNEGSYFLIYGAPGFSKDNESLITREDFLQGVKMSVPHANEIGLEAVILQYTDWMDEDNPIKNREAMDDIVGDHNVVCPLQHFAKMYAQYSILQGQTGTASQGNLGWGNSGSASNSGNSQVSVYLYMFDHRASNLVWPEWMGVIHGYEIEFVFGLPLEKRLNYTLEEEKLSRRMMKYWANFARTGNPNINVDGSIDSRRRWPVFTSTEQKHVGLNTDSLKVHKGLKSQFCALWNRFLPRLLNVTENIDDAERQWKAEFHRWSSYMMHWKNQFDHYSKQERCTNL

Consider `Cc1c(C)c2ccc(OCCCCN(C)Cc3ccccc3)cc2oc1=O`, for which the IC50 (usually the concentration needed to halve the response being measured) in [1] turned out to be 96 nM; in [2], 480 nM; in [3], 6600 nM; in [4], 1100 nM; in assay [5], 790 nM; in assay [6] it was 490 nM. Moreover, the IC50 in [7] was 3700 nM.

Turning to `CN(C)Cc1cccc(COc2ccc3ccc(=O)oc3c2)c1`, the results for the IC50 in assay [3], in [4] and in assay [7] were 10000 nM, 3200 nM and 5300 nM, respectively.

`Cc1c(C)c2ccc(OCCCCCN(C)Cc3cccc(Cl)c3)cc2oc1=O`: in [8], 10 µM produced 42% inhibition. In addition, the IC50 in assay [4] came to 8900 nM; in [6], 290 nM; in assay [7], 2600 nM.

Take `CN(Cc1cccc(Cl)c1)Cc1cccc(COc2ccc3ccc(=O)oc3c2)c1`: in assay [8], at 10 µM the inhibition was 17%. Further, the IC50 came out at 3400 nM in assay [4], 5700 nM in assay [6] and 310 nM in [7].

`Cc1cc2ccc(OCc3ccc(CN(C)Cc4cccc(Cl)c4)cc3)cc2oc1=O`: in [9], the inhibition (as a rule, the relative decrease from the control value, in per cent) is 29%. The same compound registered an inhibition at 10 µM in [8] of 0%. Moreover, the IC50 was 4500 nM in assay [4] and 1300 nM in assay [6].

Consider `Cc1c(C)c2ccc(OCCCCCN(C)Cc3cccc(C#N)c3)cc2oc1=O`, for which the IC50 was found to be 5300 nM in assay [3], 2500 nM in [4], 2300 nM in assay [6] and 4100 nM in assay [7].

Take `CN(Cc1ccccc1)Cc1ccc(COc2ccc3ccc(=O)oc3c2)cc1`: the IC50 in assay [5] came out at 950 nM; in assay [6], 750 nM; in [7] it was 11000 nM.

`CN(Cc1ccc(C#N)cc1)Cc1ccc(COc2ccc3cc(C#N)c(=O)oc3c2)cc1` came in with an inhibition in assay [9] of 14%. In addition, at 10 µM the inhibition in assay [8] was 0%. The IC50 in [4] was 990 nM.

With `CCN(CCCCCOc1ccc2c(C)c(C)c(=O)oc2c1)Cc1ccccc1`, the IC50 came to 9500 nM in assay [3], 7800 nM in assay [4], 750 nM in [6] and 940 nM in [7].

In turn, `COc1cccc(CN(C)Cc2ccc(COc3ccc4ccc(=O)oc4c3)cc2)c1` registered an inhibition at 10 µM in [8] of 20%. For the same compound, the IC50 is 2900 nM in assay [4], 4600 nM in assay [6] and 1400 nM in assay [7].

Regarding `O=c1cc(CO)c2ccc(OCc3ccc(CNCc4ccccc4)cc3)cc2o1`, the inhibition at 10 µM in assay [8] was found to be 19%. Further, the IC50 in [4] was 530 nM; in assay [6], 440 nM; in assay [7], 570 nM.

In assay [8], `CN(C)Cc1ccc(COc2ccc3ccc(=O)oc3c2)cc1` displayed an inhibition at 10 µM of 17%. In addition, the results for the IC50 in assay [4], in assay [6] and in [7] were 3700 nM, 7100 nM and 240 nM, respectively.

In the case of `CN(Cc1ccc(C#N)cc1)Cc1ccc(COc2ccc3c(CO)cc(=O)oc3c2)cc1`, the IC50 in assay [1] is 5.7 nM; in [2], 4480 nM; in assay [4], 35 nM; in assay [6], 6300 nM. Further, in assay [9], the inhibition is 23%. The compound further displayed an inhibition at 10 µM in assay [8] of 0%.

With `COc1cccc(CN(C)Cc2cccc(COc3ccc4ccc(=O)oc4c3)c2)c1`, in assay [8], the inhibition at 10 µM stood at 14%. Besides, the IC50 in assay [4] was found to be 2500 nM; in assay [6], 6600 nM; in [7], 880 nM.

`CN(CCc1ccc(COc2ccc3ccc(=O)oc3c2)cc1)Cc1ccccc1`: the values for the IC50 in assay [6] and in assay [7] were 850 nM and 520 nM, respectively.

For `CCN(CCCOc1ccc2c(C)c(C)c(=O)oc2c1)Cc1ccccc1`, the IC50 in [3] is 7400 nM; in assay [4], 980 nM; in assay [6], 360 nM; in [7], 4000 nM.

Turning to `O=c1ccc2ccc(OCc3ccc(CCNCc4ccccc4)cc3)cc2o1`, the IC50 is 4700 nM in assay [6] and 640 nM in [7].

Consider `CN(Cc1ccc(COc2ccc3ccc(=O)oc3c2)cc1)Cc1cccc(Cl)c1`, for which the inhibition at 10 µM in [8] worked out at 12%. The IC50 in assay [4] turned out to be 2700 nM; in assay [6], 590 nM; in assay [7], 1200 nM.

`CN(Cc1ccc(COc2ccc3ccc(=O)oc3c2)cc1)Cc1cccc(C#N)c1` registered an inhibition at 10 µM in assay [8] of 5%. Further, the IC50 was 2800 nM in [4], 7400 nM in assay [6] and 4100 nM in assay [7].

With `Cc1c(C)c2ccc(OCc3ccc(CN(C)Cc4cccc(Cl)c4)cc3)cc2oc1=O`, the inhibition in [9] was found to be 48%. In addition, in [8], 10 µM produced 7% inhibition. Moreover, the results for the IC50 in assay [4] and in assay [6] were 3400 nM and 660 nM, respectively.

For the compound `Cc1cc(=O)oc2cc(OCc3ccc(CN(C)Cc4cccc(Cl)c4)cc3)ccc12`, in [9], the inhibition was 47%. Also, the inhibition at 10 µM in assay [8] was 0%. The IC50 turned out to be 5000 nM in assay [4], 1000 nM in [5] and 120 nM in [6].

Consider `Cc1c(C)c2ccc(OCCCCCN(C)Cc3ccccc3)cc2oc1=O`, for which the IC50 in assay [3] was 4200 nM; in [4], 980 nM; in assay [6] it was 550 nM; in [7] it was 2800 nM.

`CN(Cc1ccccc1)Cc1cccc(COc2ccc3ccc(=O)oc3c2)c1`: the figures for the IC50 in assay [6] and in assay [7] were 2300 nM and 1000 nM, respectively.

In assay [8], `Cc1cc(=O)oc2cc(OCc3ccc(CN(C)Cc4ccccc4)cc3)ccc12` registered an inhibition at 10 µM of 10%. In addition, the IC50 in assay [4] came out at 4100 nM; in [5], 910 nM; in assay [6], 180 nM; in assay [7], 1000 nM.

Regarding `Cc1c(C)c2ccc(OCc3ccc(CN(C)Cc4ccc(C#N)cc4)cc3)cc2oc1=O`, in assay [9], the inhibition came out at 18%. The values for the IC50 in assay [5] and in [6] were 3900 nM and 4200 nM, respectively.

In turn, `Cc1c(C)c2ccc(OCCCCCN(C)Cc3ccc(C#N)cc3)cc2oc1=O` came in with an inhibition at 10 µM in [8] of 48%. Besides, the results for the IC50 in assay [4], in [6] and in assay [7] were 3300 nM, 2800 nM and 4300 nM, respectively.

`Cc1cc2ccc(OCc3ccc(CN(C)Cc4ccccc4)cc3)cc2oc1=O` returned an inhibition at 10 µM in assay [8] of 0%. Also, the IC50 in assay [4] was determined as 2400 nM; in assay [5], 500 nM; in assay [6], 260 nM; in assay [7], 1100 nM.

`CN(Cc1cccc(C#N)c1)Cc1cccc(COc2ccc3ccc(=O)oc3c2)c1` yielded an inhibition at 10 µM in assay [8] of 2%. Moreover, the IC50 in assay [4] was found to be 3700 nM; in assay [6], 4200 nM; in assay [7], 2800 nM.
